Laboratory results: PMC11770821, “Pharmacokinetics and pharmacodynamics of an innovative psychedelic N,N-dimethyltryptamine/harmine formulation in healthy participants: a randomized controlled trial” (International Journal of Neuropsychopharmacology, 2025)

Key:
clinical = settings: male, human, plasma, other: intranasal (DMT), buccal (harmine)
Description: (§1) The study was conducted as a within-subject, double-blind, randomized placebo-controlled trial. Randomization was performed by an independent individual using a computer-generated random number sequence. All participants underwent 3 randomized drug treatments on separate study days, with an intervening washout period of at least 2 weeks: (1) DMT/HAR: harmine hydrochloride (HCl; 100 mg; buccal orodispersible tablet; ODT) plus DMT (as hemifumarate; 100 mg; intranasal: 10 mg every 15 minutes over 150 minutes), (2) HAR/PLA: harmine (100 mg, buccal ODT) plus placebo nasal spray (NaCl; at same dosing intervals), and (3) PLA/PLA: placebo buccal ODT plus placebo nasal spray. In all conditions, buccal tablets were premedicated for 30 minutes. Food or water intake was not allowed 2 hours before drug administration.
(§2) Thirty minutes following buccal premedication with harmine HCl (100 mg) or placebo, the intranasal repeated-intermittent administration of DMT or placebo was initiated. Volunteers received up to 100 mg DMT in 10 mg dosing steps each 15 minutes (2 × 2 puffs per nostril) over a period of 150 minutes (except for a 30-minute break between 60 and 90 minutes due to a behavioral task). […] Volunteers could adjust each dose (0, 5, 10 mg) based on tolerance, with encouragement to follow the regimen if no adverse effects (AEs) occurred. Thus, volunteers were given the chance to control the psychedelic strength of the experience to enhance safety and tolerability.
(§3) Blood samples were collected from the left or right antecubital vein at −30 (baseline), 0, 30, 60, 90, 120, 150, 180, 195, 210, 240, 270, and 300 minutes after first DMT/placebo administration for analysis of blood plasma levels of harmine, DMT, the 3 major DMT metabolites 3-IAA, DMT-N-oxide, and NMT and the major harmine metabolite harmol. While DMT administration was ongoing, blood drawing was always performed right before DMT administration (time point -1 minute). The venous catheter was connected to a 100 mm Heidelberger plastic tube extension to collect blood samples without disturbing the volunteers during their psychedelic experience. The intravenous line was kept patent with a slow drip (10 mL/h) of heparinized saline (1000 IU heparin in 0.9 g NaCl/dL; HEPARIN Bichsel; Bichsel AG). Blood samples were immediately centrifuged for 10 minutes at 2000 RCF. Then, plasma was transferred to Eppendorf tubes, shock-frosted in liquid nitrogen (~ −196 °C) and stored at −80 °C until assay.
(§4) The data were analyzed and visualized with R Studio version 2021.09.2 + 382.[36] PK-PD parameters were computed using the R-package PKNCA.[37] For Cmax, tmax, AUCs (area under the curves), and half-life calculations, non-compartmental analyses were performed.[38] […] Post hoc pairwise comparisons were calculated using paired Wilcoxon signed-rank tests. P-values were adjusted using the Benjamini-Hochberg multiple testing correction method. Pearson or Spearman correlations were performed (as appropriate according to Shapiro-Wilk tests) to analyze associations between DMT plasma levels and subjective effects.
(§5) For the sample preparation 200 µl of plasma were spiked with 50 µl internal standard (IS) mixture (40 ng/ml DMT-d6 and harmine-d3) and 50 µl methanol (MeOH). Proteins were precipitated by adding 400 µl of acetonitrile (ACN). The samples were shaken for 10 minutes and centrifuged for 5 min at 10‘000 rpm. 350 µl of the supernatant was transferred into an auto-sampler vial, evaporated to dryness under a gentle stream of nitrogen at room temperature and reconstituted in 100 µl eluent-mixture (98:2, v/v).

[1] = Plasma pharmacokinetics of DMT, harmine and their metabolites (non-compartmental analysis)
Description: as §1, §2, §3, §4, §5

healthy male volunteers [2] = assay: Acute subjective drug effects, visual analog scales (VAS 0–100); assay type: in vivo, human; settings: for subjective ratings of acute drug effects compared to placebo: 100 mg buccal harmine alone vs placebo
Description: The detailed dosing scheme is depicted in Figure 1.
The intensity of acute subjective effects was monitored with visual analog scales (VASs, range 0–100) on a touchscreen tablet throughout the study day at baseline (−90), 0, 30, 60, 90, 120, 180, 240, and 300 after the first DMT/placebo administration. At 360 minutes after the first DMT/placebo administration, a phenomenological interview was conducted with participants to further explore acute subjective drug effects. For PK-PD analyses, we included VAS for intensity, liking, disliking, and arousal in the present paper. Further analyses on a set of neurophysiological, psychometric, and phenomenological assessments will be presented in forthcoming manuscripts.

healthy male volunteers [3] = assay: Undesired drug effects / adverse events questionnaire (y/n and VAS 0–100); assay type: in vivo, human
Description: (§6) The participants were monitored with regard to AEs throughout the experiment by the study physician, including questionnaire-based assessments (VAS, 0-100 or y/n) of physical and mental discomfort, breathing difficulties, racing heartbeat, chest or abdominal pains, unpleasant body sensations/muscle pain, headache, nausea, vomiting, and fainting at baseline (−105), 0, 30, 60, 120, 240, and 300 minutes after DMT/placebo administration. Vital signs (systolic/diastolic blood pressure [DBP], heart rate, body temperature [BT]) were assessed using a semiautomatic blood pressure and oral temperature recording device throughout the study at baseline (−45), 0, 30, 120, 150, 210, and 270 minutes after the first DMT/placebo administration.

healthy male volunteers [4] = settings: in vivo
Description: as §6

[5] = 0 min after first intranasal DMT/placebo administration
[6] = 60 min after first intranasal DMT/placebo administration
[7] = 120 min after first intranasal DMT/placebo administration
[8] = 180 min after first intranasal DMT/placebo administration
[9] = 240 min after first intranasal DMT/placebo administration
[10] = 300 min after first intranasal DMT/placebo administration
[11] = −105 min (baseline) relative to first intranasal DMT/placebo administration

## O=C(O)Cc1c[nH]c2ccccc12 [3-IAA, indole-3-acetic acid]
clinical
  AUC: 7.58 µg·h/mL
  Cmax: 2.91 µg/mL
  Tmax: 4.1 h
[1]; harmine-only (HAR) condition
  plasma levels after harmine administration: decreased

## CN(C)CCc1c[nH]c2ccccc12 [DMT, N,N-dimethyltryptamine]
Healthy male volunteers [2]; DMT + harmine condition, 95% CI 0.51-0.66
  correlation (r) between subjective intensity ratings and DMT plasma levels: 0.59
Healthy male volunteers [2]; DMT + harmine, after first DMT administration
  duration of psychedelic effects / overall drug action: ≤ 240 min
Healthy male volunteers [2]; DMT co-administered with harmine
  duration of acute drug (psychedelic) effects: 2 to 3 h
[1]; DMT + harmine condition
  time blood plasma levels remained constant after the last intranasal DMT dose: 30 min
[1]; male, human, plasma, other: intranasal
  half-life: 0.6 h

## C[N+](C)([O-])CCc1c[nH]c2ccccc12 [DMT-N-oxide]
[1]; DMT + harmine condition, plasma elimination half-life, mean (SD)
  t1/2: 1.2 (0.4) h
[1]; DMT + harmine condition, plasma, time zero to infinity, mean (SD)
  AUCinf: 69.2 (22.1) ng × h/mL

## COc1ccc2c(c1)[nH]c1c(C)nccc12 [Harmine, harmine]
Healthy male volunteers [2]
  subjective ratings of acute drug effects compared to placebo: no statistical differences
Healthy male volunteers [2]; listed as HAR
  subjective ratings of acute drug effects compared to placebo: no significant difference
Healthy male volunteers [2]; at 90 minutes (max. intensity ratings)
  effect size, intensity ratings, contrast vs PLA: 0.133
Healthy male volunteers [2]; at 240 minutes
  effect size, intensity ratings, contrast vs PLA: 0.127
Healthy male volunteers [2]; mean (SD)
  peak effects of arousal, VAS: 9.9 % of the maximal possible scor
  peak effects of disliking, VAS: 7.8 % of the maximal possible scor
  peak effects of liking, VAS: 20.0 % of the maximal possible scor
  peak intensity, VAS: 7.6 % of the maximal possible scor
Healthy male volunteers [3]; [5]
  Breathing difficulty, mean intensity [0–100] (SD): 18 (25)
  Breathing difficulty, number of participants reporting: 3
  Chest pain, mean intensity [0–100] (SD): 24 (32)
  Chest pain, number of participants reporting: 2
  Fainting, mean intensity [0–100] (SD): 0 (0)
  Fainting, number of participants reporting: 0
  Head ache, mean intensity [0–100] (SD): 3 (0)
  Head ache, number of participants reporting: 1
  Heart racing, mean intensity [0–100] (SD): 28 (35)
  Heart racing, number of participants reporting: 2
  Muscle ache, mean intensity [0–100] (SD): 9 (7)
  Muscle ache, number of participants reporting: 6
  Nausea, mean intensity [0–100] (SD): 2 (0)
  Nausea, number of participants reporting: 1
  Psychological distress, mean intensity [0–100] (SD): 6 (2)
  Psychological distress, number of participants reporting: 3
  Somatic distress, mean intensity [0–100] (SD): 18 (14)
  Somatic distress, number of participants reporting: 5
  Stomach ache, mean intensity [0–100] (SD): 2 (0)
  Stomach ache, number of participants reporting: 1
  Vomiting, mean intensity [0–100] (SD): 0 (0)
  Vomiting, number of participants reporting: 0
Healthy male volunteers [3]; [6]
  Breathing difficulty, mean intensity [0–100] (SD): 21 (28)
  Breathing difficulty, number of participants reporting: 2
  Chest pain, mean intensity [0–100] (SD): 13 (8)
  Chest pain, number of participants reporting: 2
  Fainting, mean intensity [0–100] (SD): 0 (0)
  Fainting, number of participants reporting: 0
  Head ache, mean intensity [0–100] (SD): 34 (47)
  Head ache, number of participants reporting: 2
  Heart racing, mean intensity [0–100] (SD): 9 (0)
  Heart racing, number of participants reporting: 1
  Muscle ache, mean intensity [0–100] (SD): 22 (0)
  Muscle ache, number of participants reporting: 2
  Nausea, mean intensity [0–100] (SD): 11 (10)
  Nausea, number of participants reporting: 3
  Psychological distress, mean intensity [0–100] (SD): 8 (8)
  Psychological distress, number of participants reporting: 2
  Somatic distress, mean intensity [0–100] (SD): 9 (5)
  Somatic distress, number of participants reporting: 5
  Stomach ache, mean intensity [0–100] (SD): 52 (0)
  Stomach ache, number of participants reporting: 1
  Vomiting, mean intensity [0–100] (SD): 0 (0)
  Vomiting, number of participants reporting: 0
Healthy male volunteers [3]; [7]
  Breathing difficulty, mean intensity [0–100] (SD): 7 (8)
  Breathing difficulty, number of participants reporting: 3
  Chest pain, mean intensity [0–100] (SD): 4 (3)
  Chest pain, number of participants reporting: 3
  Fainting, mean intensity [0–100] (SD): 0 (0)
  Fainting, number of participants reporting: 0
  Head ache, mean intensity [0–100] (SD): 11 (0)
  Head ache, number of participants reporting: 1
  Heart racing, mean intensity [0–100] (SD): 5 (5)
  Heart racing, number of participants reporting: 3
  Muscle ache, mean intensity [0–100] (SD): 10 (9)
  Muscle ache, number of participants reporting: 3
  Nausea, mean intensity [0–100] (SD): 15 (0)
  Nausea, number of participants reporting: 1
  Psychological distress, mean intensity [0–100] (SD): 4 (5)
  Psychological distress, number of participants reporting: 2
  Somatic distress, mean intensity [0–100] (SD): 7 (5)
  Somatic distress, number of participants reporting: 7
  Stomach ache, mean intensity [0–100] (SD): 30 (37)
  Stomach ache, number of participants reporting: 2
  Vomiting, mean intensity [0–100] (SD): 0 (0)
  Vomiting, number of participants reporting: 0
Healthy male volunteers [3]; [8]
  Breathing difficulty, mean intensity [0–100] (SD): 0 (0)
  Breathing difficulty, number of participants reporting: 0
  Chest pain, mean intensity [0–100] (SD): 0 (0)
  Chest pain, number of participants reporting: 0
  Fainting, mean intensity [0–100] (SD): 0 (0)
  Fainting, number of participants reporting: 0
  Head ache, mean intensity [0–100] (SD): 72 (0)
  Head ache, number of participants reporting: 1
  Heart racing, mean intensity [0–100] (SD): 1 (0)
  Heart racing, number of participants reporting: 1
  Muscle ache, mean intensity [0–100] (SD): 16 (14)
  Muscle ache, number of participants reporting: 4
  Nausea, mean intensity [0–100] (SD): 1 (0)
  Nausea, number of participants reporting: 1
  Psychological distress, mean intensity [0–100] (SD): 9 (0)
  Psychological distress, number of participants reporting: 1
  Somatic distress, mean intensity [0–100] (SD): 13 (3)
  Somatic distress, number of participants reporting: 4
  Stomach ache, mean intensity [0–100] (SD): 0 (0)
  Stomach ache, number of participants reporting: 0
  Vomiting, mean intensity [0–100] (SD): 0 (0)
  Vomiting, number of participants reporting: 0
Healthy male volunteers [3]; [9]
  Breathing difficulty, mean intensity [0–100] (SD): 6 (0)
  Breathing difficulty, number of participants reporting: 1
  Chest pain, mean intensity [0–100] (SD): 1 (0)
  Chest pain, number of participants reporting: 1
  Fainting, mean intensity [0–100] (SD): 0 (0)
  Fainting, number of participants reporting: 0
  Head ache, mean intensity [0–100] (SD): 27 (0)
  Head ache, number of participants reporting: 1
  Heart racing, mean intensity [0–100] (SD): 3 (0)
  Heart racing, number of participants reporting: 1
  Muscle ache, mean intensity [0–100] (SD): 21 (5)
  Muscle ache, number of participants reporting: 3
  Nausea, mean intensity [0–100] (SD): 2 (0)
  Nausea, number of participants reporting: 1
  Psychological distress, mean intensity [0–100] (SD): 3 (1)
  Psychological distress, number of participants reporting: 2
  Somatic distress, mean intensity [0–100] (SD): 16 (12)
  Somatic distress, number of participants reporting: 4
  Stomach ache, mean intensity [0–100] (SD): 32 (44)
  Stomach ache, number of participants reporting: 2
  Vomiting, mean intensity [0–100] (SD): 0 (0)
  Vomiting, number of participants reporting: 0
Healthy male volunteers [3]; [10]
  Breathing difficulty, mean intensity [0–100] (SD): 3 (0)
  Breathing difficulty, number of participants reporting: 1
  Chest pain, mean intensity [0–100] (SD): 0 (0)
  Chest pain, number of participants reporting: 0
  Fainting, mean intensity [0–100] (SD): 0 (0)
  Fainting, number of participants reporting: 0
  Head ache, mean intensity [0–100] (SD): 0 (0)
  Head ache, number of participants reporting: 0
  Heart racing, mean intensity [0–100] (SD): 49 (0)
  Heart racing, number of participants reporting: 1
  Muscle ache, mean intensity [0–100] (SD): 9 (11)
  Muscle ache, number of participants reporting: 2
  Nausea, mean intensity [0–100] (SD): 2 (1)
  Nausea, number of participants reporting: 2
  Psychological distress, mean intensity [0–100] (SD): 70 (0)
  Psychological distress, number of participants reporting: 1
  Somatic distress, mean intensity [0–100] (SD): 12 (5)
  Somatic distress, number of participants reporting: 3
  Stomach ache, mean intensity [0–100] (SD): 2 (0)
  Stomach ache, number of participants reporting: 1
  Vomiting, mean intensity [0–100] (SD): 0 (0)
  Vomiting, number of participants reporting: 0
Healthy male volunteers [3]; in vivo
  overall safety and tolerability of drug-induced AEs: mild and well tolerated
Healthy male volunteers [3]; [11]
  Breathing difficulty, mean intensity [0–100] (SD): 12 (15)
  Breathing difficulty, number of participants reporting: 2
  Chest pain, mean intensity [0–100] (SD): 0 (0)
  Chest pain, number of participants reporting: 0
  Fainting, mean intensity [0–100] (SD): 0 (0)
  Fainting, number of participants reporting: 0
  Head ache, mean intensity [0–100] (SD): 8 (7)
  Head ache, number of participants reporting: 3
  Heart racing, mean intensity [0–100] (SD): 9 (6)
  Heart racing, number of participants reporting: 3
  Muscle ache, mean intensity [0–100] (SD): 11 (9)
  Muscle ache, number of participants reporting: 5
  Nausea, mean intensity [0–100] (SD): 6 (0)
  Nausea, number of participants reporting: 1
  Psychological distress, mean intensity [0–100] (SD): 13 (8)
  Psychological distress, number of participants reporting: 4
  Somatic distress, mean intensity [0–100] (SD): 17 (12)
  Somatic distress, number of participants reporting: 7
  Stomach ache, mean intensity [0–100] (SD): 12 (15)
  Stomach ache, number of participants reporting: 2
  Vomiting, mean intensity [0–100] (SD): 0 (0)
  Vomiting, number of participants reporting: 0
Healthy male volunteers [4]
  change of cardiovascular parameters: no relevant changes
